From patent US4510142A, “Derivatives of biphenyl alkyl carboxylates and their use as medicaments” (Pierre Fabre S.A., priority 1981, dated 1985)
Structures can show the parent of a compound that is named as a salt. Where two headings read alike, the source gives them in different places.

How the values were obtained:
[1] = system: carragenine oedema, rat's foot; test: anti-inflammatory oedema test by injecting carragenine into a rat's foot (Winter, Ribley and Nuss); format: in vivo
Protocol: Winter, E. Ribley and G. Nuss--Proc. Soc. Exper. Biol. Med., 1962, 111, 544 547.
The products were administered orally in suspension in a Tween-water mixture 2 hours before the experiment. All the administered compounds have a good anti-inflammatory activity. It will particularly be noted that the compound of Example 14 has a DE50 of 3 mg/kg.

in vivo = conditions: mouse, in vivo, po
Protocol: (§1) A toxicity study was carried out on conventional mice weighing about 20 grams.
(§2) The compounds corresponding to the general formula I according to the present invention and the pharmaceutically acceptable salts thereof were administered orally. The DL50 was calculated according to the method by L. C. Miller and M. L. Tainter--Proc. Soc. Exper.

[2] = system: pain (phenyl benzoquinone injection); test: pain-killing activity according to Siegmund (phenyl benzoquinone injection); format: in vivo; conditions: oral, 30 minutes before injection of phenyl benzoquinone; read-out: DE50 (pain-killing activity)
Protocol: The pain-killing activity was studied according to Siegmund--J. Pharm. Exptl. ther., 1957, 119,453.
The compounds according to the present invention were administered orally 30 minutes before the injection of phenyl benzoquinone.

conventional mice = test: in vivo; conditions: p.o.; comparison products
Protocol: as §1, §2

[3] = Rattus norvegicus, po, comparison products, read-out: DE50 (carragenine)
[4] = Rattus norvegicus, po, read-out: DE50 (carragenine)

`COc1ccc2cc([C@H](C)C(=O)O)ccc2c1` [Naproxen] showed an ED50 [1, 3] of 5 mg/kg.
`CC(C(=O)OCC(=O)N1CCN(C)CC1)c1ccc(-c2ccccc2Cl)cc1` (stereo not drawn) [Example 12, 2-(4-methylpiperazino)-2-oxoethyl 2-(2'-chloro-4-biphenylyl)propionate hydrochloride] showed an LD50 (in vivo) of over 500 mg/kg and an ED50 [2] of 7 mg/kg.
Molecule `CC(C(=O)OCC(=O)N1CCC(c2ccccc2)CC1)c1ccc(-c2ccccc2Cl)cc1` (stereo not drawn) [Example 14, 2-(4-phenylpiperidino)-2-oxoethyl 2-(2'-chloro-4-biphenylyl)propionate] has an LD50 (in vivo) of over 500 mg/kg, an ED50 [2] of 5 mg/kg and an ED50 ([1]; rat, oral suspension in Tween-water, 2 hours before the experiment, read-out: DE50 (anti-inflammatory activity)) of 3 mg/kg.
In the case of `COc1ccc2c(c1)c(CC(=O)O)c(C)n2C(=O)c1ccc(Cl)cc1` [Indometacine], the LD50 (conventional mice) is reported as 20 mg/kg and the ED50 [1, 4] is reported as 4 mg/kg.
In the case of Phenylbutanone, the LD50 (conventional mice) is reported as 400 mg/kg and the “DE50 (carragenine)” value ([1]; p.o., comparison products) is reported as 30 mg/kg.
`CC(C)Cc1ccc(C(C)C(=O)O)cc1` (stereo not drawn) [Ibuprofen] showed an ED50 [1, 3] of 14 mg/kg.
`CC(=O)Oc1ccccc1C(=O)O` [Aspirin] gave an ED50 [1, 4] of 135 mg/kg.
